Where a name gives a salt, the structure may show the parent alone.
Tested on: hypoxic mice
Experiment: Survival time of mice under normal pressure in hypoxic condition (sealed wide mouth bottle with soda lime)
Assay type: in vivo
Details: intragastric; for Extended Survival Time: 7 days, vs control group; for Survival Time: once a day for 7 days, n = 10, x ± S
Method: Observation of influence of oral administration of different dosage combination of L-carnitine+trimetazidine to hypoxic mice in normal pressure trimetazidine hydrochloride: 0.15, 0.75, 1.5, 3, 6 and 9 mg/kg, equivalent to human daily dosage of 1, 5, 10, 20, 40 and 60 mg;
L-carnitine: 600 mg/kg, equivalent to human daily dosage of 4 g; 70 male mice are selected, each of a weight of 20±2 g. The mice are divided into […] randomly based on weight, 10 for each group, and are given oral administration at a dosage of 20 ml/kg, while the control group is given isovolumetric normal saline, both once a day for consecutive 7 days. In one hour after the final administration, each group of mice are placed in wide mouth bottles of a volume of 160 ml, into which 5 g of soda lime has been pre-added. One bottle contains one mouse and its cap is sealed with Vaseline. Taking death of mice as index, putting down the survival time of mice and taking a 20% or more extension of survival time as significant effect. Please refer to table 1 for the results.
Comparison of L-carnitine 600 mg/kg+trimetazidine hydrochloride 6 mg/kg and separate intragastric administration on mice in hypoxia under atmospheric pressure 40 male mice are selected, each of a weight of 20±2 g. The mice are divided into 4 groups randomly based on weight, 10 for each group, and are given intragastric administration at a dosage of 20 ml/kg, while the control group is given isovolumetric normal saline, both once a day for consecutive 7 days. In one hour after the final administration, each group of mice are placed in wide mouth bottles of a volume of 160 ml, into which 5 g of soda lime has been pre-added. One bottle contains one mouse and its cap is sealed with Vaseline. Taking death of mice as index and putting down the survival time of mice. Please refer to table 2 for the results.

[1] = trimetazidine hydrochloride 6 mg/kg alone

## COc1ccc(CN2CCNCC2)c(OC)c1OC [trimetazidine hydrochloride]
[1]
  Extended Survival Time: 20.9%
  Survival Time: 26.0 ± 5.2 min

## C[N+](C)(C)C[C@H](O)CC(=O)[O-] [L-carnitine]
L-carnitine 600 mg/kg alone
  Extended Survival Time: 33.0%
  Survival Time: 28.6 ± 4.8 min

— patent US20180117036A1, “ORAL PHARMACEUTICAL COMPOSITION FOR INCREASING HYPOXIA TOLERANCE” (CHANGZHOU HI-TECH DISTRICT MULTIPLE DIMENSION INDU, priority 2013, published 2018)
